Assays:
[1] = tested on: several mammalian cell types; conditions: energy-independent manner; cited from earlier work
p16 = test: Immunohistochemistry of mouse tongue sections for p16; format: in vivo, mouse (C57BL/6); conditions: peptide injections after 4-NQO treatment vs 4-NQO+saline; four mice per group
Method: (§1) Six-week old wild-type C57BL/6 female mice (purchased from the Jackson Laboratory) were used for this study. The mice were maintained on a normal chow (Lab-diet with constant nutrition, Lab-Diet Co, St. Louis, Mo.) and under controlled conditions with a 12 hour light/dark cycle. The mice were randomly divided into an experimental group in which mice received drinking water that contained 100 μg/ml 4-nitroquinoline 1-oxide (4-NQO) (Sigma, St. Louis, Mo.) and a control group in which mice received drinking water that contained propylene glycol (vehicle for 4-NQO). The treatment lasted for 10 weeks after which the mice received regular drinking water. […] Mouse body weights and precancerous and cancerous lesions were monitored in the oral cavities at different times for up to 15 weeks, or until signs of sickness or weight loss. […]
(§2) Immunohistochemistry. […] The sections were incubated with secondary antibodies (1:200, anti-mouse IgG from the M.O.M kit for p16; ready to use anti-rabbit IgG from the Invitrogen SuperPicture kit for Cox-2; and ready to use anti-mouse IgG from the Dako Envision™ HRP (DAB+) kit for mouse PCNA). […] Four to five representative areas of each mouse tongue section were photographed and analyzed.

[2] = tested on: mouse tongue tumors induced by 4-NQO; test: 4-NQO mouse model: histological diagnosis of squamous neoplasia on H&E stained tongue sections; format: in vivo, mouse (C57BL/6); conditions: 4-NQO 10 weeks, then peptide 2.5 mg/kg/day s.c. 2 days/week for 15 weeks; four mice per group; 75% in 4-NQO+saline; p=0.07
Method: as §1
(§3) Tissue dissection, lesion grade measurement, and pathological diagnosis. […] Gross lesions were identified and photographed, and visible cancerous lesions on the tongues were counted. The multiplicity of lesions (number of lesions per mouse) was assessed with a 10× magnification. The severity of gross lesions on the tongues was quantified by a grading system that included 0 (no lesion), 1 (mild lesion), 2 (intermediate lesion), 3 (severe lesion), and 4 (most severe lesion) in a double blinded manner. […]

[3] = tested on: mouse tongue tumors induced by 4-NQO; test: 4-NQO mouse model of oral carcinogenesis: gross tongue lesion multiplicity and severity grading; format: in vivo, mouse (C57BL/6)
Method: A mouse model of oral squamous cell carcinomas or oral cancers was developed by exposing the animals to the carcinogen 4-nitroquinoline 1-oxide (4-NQO) via drinking water.
Six-week old wild-type C57BL/6 female mice (purchased from the Jackson Laboratory) were used for this study. The mice were maintained on a normal chow (Lab-diet with constant nutrition, Lab-Diet Co, St. Louis, Mo.) and under controlled conditions with a 12 hour light/dark cycle. […] Mouse body weights and precancerous and cancerous lesions were monitored in the oral cavities at different times for up to 15 weeks, or until signs of sickness or weight loss. […]
as §3

PTGS2 = test: Immunohistochemistry of mouse tongue sections for PTGS2 (Cox-2); format: in vivo, mouse (C57BL/6); conditions: 4-NQO + peptide vs 4-NQO+saline; four mice per group
Method: as §1, §2

PCNA = test: Immunohistochemistry of mouse tongue sections for PCNA; format: in vivo, mouse (C57BL/6); conditions: 4-NQO + peptide vs 4-NQO+saline; tongue regions with and without visible lesions; four mice per group
Method: as §1, §2

Substance	penetration of the plasma membrane [1]	p16 protein levels in tongue epithelium (p16)	percentage of mice that developed severe dysplasia, carcinoma in situ, and invasive carcinoma [2]	average number of cancerous tongue lesions per mouse (multiplicity) ([3]; 4-NQO 100 μg/ml in drinking water 10 weeks, then peptide 2.5 mg/kg/day s.c. on 2 days each week for 15 weeks, 10 mice/group, p<0.05 vs 4-NQO+saline (6.5±2.9))	percentage of less severe tongue lesions of grades 0-2 ([3]; 4-NQO 10 weeks, then peptide 2.5 mg/kg/day s.c. 2 days/week for 15 weeks, grading 0-4, p<0.05 vs 4-NQO+saline (Fisher's exact test))	PTGS2 protein levels in tongues (PTGS2)	PCNA positive cells in tongue epithelium (PCNA)
2′,6′-Dmt-D-Arg-Phe-Lys-NH2	readily penetrates the plasma membrane						
D-Arg-2′,6′-Dmt-Lys-Phe-NH2		greatly limited the 4-NQO-induced decrease in p16 protein levels	25%	3.3±2.2	100%	greatly reduced levels in PTGS2 protein	obvious lower numbers of PCNA positive cells
